Laboratory results published in US11578060B2, “JAK3 selective inhibitor” (PEKING UNIVERSITY SHENZHEN GRADUATE SCHOOL, priority 2018, dated 2023).

How the values were obtained:
[1] = tested on: phosphorylation of downstream substrates of JAKs; details: PBMCs; IL-15, IL-6, IFN-α
MCP-1 release = test: IL-6 stimulated MCP-1 release assay; assay type: cell-based, human
Experimental: (§1) The LPS-induced IL-6 and TNF-α release assay was carried out as follows: frozen PBMCs (from Allcells) were thawed in RPMI1640 (Thermo Fisher) containing 10% FBS and recovered overnight at 37° C. The next day, cells were diluted to 1×10^6 cells/mL and seeded (500 μL) in 6-well plates. Compounds or DMSO (5 μL, serially diluted in DMSO) were added to the plates and incubated with cells for 2 h at 37° C., followed by stimulation with LPS (5 μL, 1 μg/mL) and incubation for 24 h at 37° C. in 5% CO2. Supernatants were collected for determination of IL-6 and TNF-α levels using human IL-6 or human THF-α DuoSet ELISA Kits (R&D Systems) according to the manufacturer's instructions.
IL-6 stimulated inflammatory cytokine MCP-1 release assay was performed in a similar way.

STAT5 phosphorylation = test: Cell washout experiment, IL-15-stimulated CTLL-2 cells; assay type: cell-based, Mouse; details: CTLL-2, 2 h treatment, washed three times, IL-15 30 min
Experimental: The washout procedures are as follows: CTLL-2 cells were treated with compounds for 2 hours. Then, for washout groups, cells were washed three times with PBS. The non-washout groups were kept constant. Cells were then stimulated with IL-15 for 30 min, lysed, and subjected to standard Western blot. Cells, treated with compounds, were extensively washed with PBS.

TNF-α release = test: LPS-induced TNF-α release assay in PBMCs (ELISA); assay type: cell-based, human; details: LPS-challenged PBMCs, 24 h
Experimental: as §1

IL-6 release = test: LPS-induced IL-6 release assay in PBMCs (ELISA); assay type: cell-based, human; details: LPS-challenged PBMCs, 24 h
Experimental: as §1

GSK3β = GSK3β (Homo sapiens, UniProt P49841); test: Selectivity assay against a panel of kinases: GSK3β; assay type: biochemical; details: tested at 1 μM
[2] = tested on: STAT1 phosphorylation (IFN-α signal pathway); test: Cellular selectivity assay: IFN-α-stimulated STAT1 phosphorylation in PBMCs; assay type: cell-based, human; details: doses as high as 10 μM
panel of kinases = details: tested at 1 μM
PKCα = PKCα (Homo sapiens, UniProt P17252); test: Selectivity assay against a panel of kinases: PKCα; assay type: biochemical; details: tested at 1 μM
PKCγ = PKCγ (Homo sapiens, UniProt P05129); test: Selectivity assay against a panel of kinases: PKCγ; assay type: biochemical; details: tested at 1 μM
[3] = tested on: STAT3 phosphorylation (IL-6 signal pathway); test: Cellular selectivity assay: IL-6-stimulated STAT3 phosphorylation in PBMCs; assay type: cell-based, human; details: IL-6, doses as high as 10 μM
[4] = tested on: IL-2-induced STAT5 phosphorylation; test: IL-2-induced STAT5 phosphorylation in PBMC (Western blot)
[5] = tested on: IL-15-induced STAT5 phosphorylation; test: IL-15-induced STAT5 phosphorylation in PBMC (Western blot); assay type: cell-based, human

Chain of GSK3β (P49841 whole entry, species assumed): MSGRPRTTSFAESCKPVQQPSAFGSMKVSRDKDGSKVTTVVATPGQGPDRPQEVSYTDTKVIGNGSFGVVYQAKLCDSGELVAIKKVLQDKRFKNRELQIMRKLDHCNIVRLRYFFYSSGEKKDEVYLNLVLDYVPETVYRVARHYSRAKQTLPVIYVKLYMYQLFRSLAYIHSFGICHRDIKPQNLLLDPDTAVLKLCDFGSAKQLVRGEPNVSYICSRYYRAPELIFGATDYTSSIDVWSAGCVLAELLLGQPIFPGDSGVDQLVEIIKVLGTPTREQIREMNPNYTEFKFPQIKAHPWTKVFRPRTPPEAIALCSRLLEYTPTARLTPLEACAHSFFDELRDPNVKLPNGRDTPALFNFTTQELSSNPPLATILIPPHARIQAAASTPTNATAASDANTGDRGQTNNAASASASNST

Tofacitinib [reference compound]
cellular selectivity among JAKs (three cytokines) [1]: did not show obvious selectivity | effect on IL-6-induced MCP-1 release (MCP-1 release): did not inhibit | inhibition of STAT5 phosphorylation after washing out with PBS (STAT5 phosphorylation): almost lost after washing out | effect on LPS-induced release of TNF-α (TNF-α release): increased cytokine production in different degrees | effect on LPS-induced release of IL-6 (IL-6 release): increased cytokine production in different degrees

CC(C)(O)C(=O)N1CCN(c2ccc(C(F)(F)F)c(C3=C(c4c[nH]c5ccccc45)C(=O)NC3=O)c2)CC1 [NIBR3049, reference compound]
inhibition of STAT5 phosphorylation after washing out with PBS (STAT5 phosphorylation): almost lost after washing out

C=CC(=O)N1CCN(c2ccc([N+](=O)[O-])c(C3=C(c4c[nH]c5ccccc45)C(=O)NC3=O)c2)CC1 [Compound 32, 3-(5-(4-acryloylpiperazin-1-yl)-2-(nitro)phenyl)-4-(1H-indol-3-yl)-1H-pyrrole-2,5-dione]
inhibition at 1 µM (GSK3β): > 50% | inhibition of STAT1 phosphorylation [2]: only partial inhibition | inhibition of most kinases of the panel (panel of kinases): no more than 50% | effect on IL-6-induced MCP-1 release (MCP-1 release): did not inhibit | inhibition at 1 µM (PKCα): > 50% | inhibition at 1 µM (PKCγ): > 50% | inhibition of STAT3 phosphorylation [3]: only partial inhibition | inhibition of STAT5 phosphorylation after washing out with PBS (STAT5 phosphorylation): sustained inhibition of STAT5 phosphorylation | effect on LPS-induced release of TNF-α (TNF-α release): significantly inhibited | inhibitory activity against IL-2-induced STAT5 phosphorylation compared with NIBR3049 [4]: higher inhibitory activity | effect on LPS-induced release of IL-6 (IL-6 release): significantly inhibited | inhibitory activity against IL-15-induced STAT5 phosphorylation compared with NIBR3049 ([5]; PBMC): higher inhibitory activity | concentration that effectively abrogated phosphorylation of STAT5 ([5]; PBMCs, IL-15 stimulation): 300 nM
